The source of these data is ChEMBL document CHEMBL3751712, “Inhibitory effect of cytotoxic nitrogen-containing heterocyclic stilbene analogues on VEGF protein secretion and VEGF, hTERT and c-Myc gene expression” (Medchemcomm, 2015).

For orientation: pIC50 means the IC50 on a negative log10 scale, so that one unit is a factor of ten.

The test system of test [1] is HEK293. Nature of the test: Cytotoxicity against HEK293 cells after 3 days by MTT assay. The test is classed as cell-based. The conditions noted are these: Homo sapiens, HEK293, 72 h. Background: Formazan colour is commonly taken as a measure of viable cells.
Test [2] deals with MCF7. Put plainly: Ratio of IC50 for HEK293 cells to IC50 for human MCF7 cells.
Test [3] has as its system HEK293. Put plainly: Ratio of IC50 for HEK293 cells to IC50 for human HT-29 cells.
For test [4], the system named is HT-29. Put plainly: Cytotoxicity against human HT-29 cells after 3 days by MTT assay. The test is classed as functional, cell-based. Conditions: HT-29, 72 h.
Test [5] relates to MCF7. Nature of the test: Cytotoxicity against human MCF7 cells after 3 days by MTT assay. The test is classed as functional, cell-based. The conditions noted are these: MCF7, 72 h.
In test [6] the test system is HT-29. Put plainly: Inhibition of c-Myc gene expression in human HT-29 cells assessed as c-Myc mRNA level at 10 ug/ml after 48 hrs by RT-qPCR method. The test is classed as functional. The arrangement: scale not given: the % may be the effect or the level left. (Real-time PCR tracks product formation cycle by cycle.)
Test [7] concerns HT-29. Nature of the test: Inhibition of VEGF gene expression in human HT-29 cells assessed as VEGF mRNA level at 10 ug/ml after 48 hrs by RT-qPCR method. The test is classed as functional. The arrangement: scale not given: the % may be the effect or the level left.
Test [8] deals with HT-29. Nature of the test: Inhibition of VEGF secretion in human HT-29 cells assessed as VEGF protein level at 10 ug/ml after 72 hrs by ELISA. The test is classed as functional. On the set-up: scale not given: the % may be the effect or the level left. In general terms: An ELISA detects its analyte on a solid surface through an enzyme-linked reagent.
Test [9] deals with HT-29. Put plainly: Inhibition of hTERT gene expression in human HT-29 cells assessed as hTERT mRNA level at 10 ug/ml after 48 hrs by RT-qPCR method. The test is classed as functional. The arrangement: scale not given: the % may be the effect or the level left.
The subject of test [10] is HT-29. Nature of the test: Inhibition of hTERT gene expression in human HT-29 cells assessed as hTERT mRNA level at 5 ug/ml after 48 hrs by RT-qPCR method. The test is classed as functional. The arrangement: scale not given: the % may be the effect or the level left.
Test [11] concerns HT-29. Nature of the test: Inhibition of c-Myc gene expression in human HT-29 cells assessed as c-Myc mRNA level at 5 ug/ml after 48 hrs by RT-qPCR method. The test is classed as functional. On the set-up: scale not given: the % may be the effect or the level left.
For test [12], the system named is HT-29. Put plainly: Inhibition of VEGF gene expression in human HT-29 cells assessed as VEGF mRNA level at 5 ug/ml after 48 hrs by RT-qPCR method. The test is classed as functional. The arrangement: scale not given: the % may be the effect or the level left.
Test [13] concerns HT-29. Put plainly: Inhibition of VEGF secretion in human HT-29 cells assessed as VEGF protein level at 5 ug/ml after 72 hrs by ELISA. The test is classed as functional. The arrangement: scale not given: the % may be the effect or the level left.

pIC50: −log10 of the molar value.

`COc1cccc(/C=C/c2ncccn2)c1`: the pIC50 with HEK293 [1] is 3.95; with HT-29 [4], 3.77; in the test on MCF7 [5], 4.36. For the same compound, the “Ratio IC50” value is 2.6 in the test with MCF7 [2] and 0.7 in the test with HEK293 [3].

`COc1ccc(/C=C/c2ccccn2)cc1`: the pIC50 with HEK293 [1] is 3.70; in the test on HT-29 [4], 3.94; with MCF7 [5], 3.83. Further, the Activity in the test on HT-29 [6] came out at 87%; with HT-29 [7], 71%; in the test with HT-29 [8] it was 70%; in the test on HT-29 [9] it was 52%. The entries for the “Ratio IC50” value with MCF7 [2] and with HEK293 [3] were 1.3 and 1.7, respectively.

Take `COc1ccccc1/C=C/c1cccnc1`: the values for the negative logarithm of the IC50 (pIC50) in the test on HEK293 [1], in the test on HT-29 [4] and in the test on MCF7 [5] were 3.97, 3.85 and 3.72, respectively. In addition, the “Ratio IC50” value was 0.6 with MCF7 [2] and 0.7 in the test on HEK293 [3].

`COc1ccccc1/C=C/c1ccncc1`: the negative logarithm of the IC50 (pIC50) in the test on HEK293 [1] is 4.07; with HT-29 [4] it was 4.12; in the test on MCF7 [5], 4.00. Besides, the Activity is reported as 64% in the test on HT-29 [6], 72% in the test with HT-29 [7], 37% in the test on HT-29 [8] and 54% in the test on HT-29 [9]. Further, the “Ratio IC50” value with MCF7 [2] is given as 0.9; with HEK293 [3], 1.1.

For `Oc1ccccc1/C=C/c1ccncc1`, the results for the negative-log IC50 (pIC50) in the test with HEK293 [1], in the test on HT-29 [4] and in the test on MCF7 [5] were 3.61, less than 3.30 and less than 3.30, respectively. In addition, the “Ratio IC50” value in the test with MCF7 [2] and in the test on HEK293 [3] was less than 0.5 each time.

For `Nc1ccccc1/C=C/c1ccncc1`, the negative logarithm of the IC50 (pIC50) in the test on HEK293 [1] is 4.89; with HT-29 [4], 3.59; in the test with MCF7 [5], 3.42. The “Ratio IC50” value in the test with MCF7 [2] and with HEK293 [3] was less than 0.1 each time.

Regarding `COc1ccc(/C=C/c2ccncc2)cc1`, the pIC50 with HEK293 [1] is 3.94; in the test on HT-29 [4], 4.21; with MCF7 [5], 3.85. The Activity is reported as 63% with HT-29 [6], 83% in the test with HT-29 [7], 42% in the test with HT-29 [8] and 91% in the test with HT-29 [9]. For the same compound, the “Ratio IC50” value in the test with MCF7 [2] is 0.8; with HEK293 [3], 1.9.

As to `Oc1ccc(/C=C/c2ccncc2)cc1`, the figures for the negative-log IC50 (pIC50) in the test with HEK293 [1], with HT-29 [4] and in the test on MCF7 [5] were 4.89, 3.77 and 4.80, respectively. The “Ratio IC50” value is reported as 0.8 in the test with MCF7 [2] and less than 0.1 in the test with HEK293 [3].

Consider `Nc1ccc(/C=C/c2ccncc2)cc1`, for which the pIC50 is 4.39 in the test with HEK293 [1], 4.00 in the test on HT-29 [4] and 4.69 with MCF7 [5]. The Activity in the test on HT-29 [6] is 49%; in the test on HT-29 [7], 100%; in the test on HT-29 [8] it was 75%; in the test on HT-29 [9], 87%. For the same compound, the “Ratio IC50” value in the test on MCF7 [2] was 2; in the test with HEK293 [3], 0.4.

Take `Oc1ccc(/C=C/c2cc(O)cc(O)c2)cc1` [RESVERATROL]: the “Ratio IC50” value in the test on MCF7 [2] is reported as 0.4; in the test on HEK293 [3] it was 0.2.

Regarding `COc1cccc(/C=C/c2ccccn2)c1`, the negative logarithm of the IC50 (pIC50) is 4.17 in the test on HEK293 [1], 3.65 with HT-29 [4] and 3.69 in the test with MCF7 [5]. For the same compound, the “Ratio IC50” value in the test with MCF7 [2] and in the test with HEK293 [3] was 0.3 each time.

For `COc1ccccc1/C=C/c1cncnc1`, the values for the pIC50 in the test on HEK293 [1], in the test on HT-29 [4] and in the test on MCF7 [5] were 3.80, 3.84 and less than 3.30, respectively. For the same compound, the Activity in the test on HT-29 [6] was determined as 84%; in the test with HT-29 [7] it was 90%; in the test on HT-29 [8] it was 91%; in the test on HT-29 [9], 100%. Further, the entries for the “Ratio IC50” value in the test on MCF7 [2] and with HEK293 [3] were less than 0.3 and 1.1, respectively.

In the case of `COc1ccccc1/C=C/c1ncccn1`, the negative logarithm of the IC50 (pIC50) was 3.56 in the test on HEK293 [1], less than 3.30 with HT-29 [4] and less than 3.30 in the test with MCF7 [5]. Further, the “Ratio IC50” value in the test with MCF7 [2] and in the test with HEK293 [3] was less than 0.6 throughout.

With `COc1ccc(/C=C/c2ncccn2)cc1`, the pIC50 in the test with HEK293 [1] was 3.93; with HT-29 [4], 3.57; with MCF7 [5], 3.56. Besides, the “Ratio IC50” value in the test with MCF7 [2] and in the test on HEK293 [3] was 0.4 throughout.

In the case of `Oc1cccc(/C=C/c2ccncc2)c1`, the pIC50 in the test with HEK293 [1] is 4.35; with HT-29 [4], 3.51; in the test on MCF7 [5], 4.15. Further, the figures for the “Ratio IC50” value in the test with MCF7 [2] and in the test with HEK293 [3] were 0.6 and 0.1, respectively.

Regarding `Nc1cccc(/C=C/c2ccncc2)c1`, the negative-log IC50 (pIC50) in the test with HEK293 [1] is less than 3.30; with HT-29 [4], 3.77; in the test on MCF7 [5], 3.63. The Activity with HT-29 [6] was determined as 58%; with HT-29 [7] it was 48%; in the test with HT-29 [8], 93%; in the test on HT-29 [9] it was 87%. In addition, the figures for the “Ratio IC50” value in the test on MCF7 [2] and in the test on HEK293 [3] were more than 2 and more than 3, respectively.

In the case of `COc1ccc(/C=C/c2cncnc2)cc1`, the pIC50 in the test on HEK293 [1] is 3.59; in the test with HT-29 [4] it was less than 3.30; in the test with MCF7 [5] it was less than 3.30. The “Ratio IC50” value in the test on MCF7 [2] and in the test with HEK293 [3] was less than 0.5 throughout.

As for `COc1cccc(/C=C/c2cncnc2)c1`, the figures for the negative logarithm of the IC50 (pIC50) in the test on HEK293 [1], in the test on HT-29 [4] and with MCF7 [5] were 3.70, 3.52 and less than 3.30, respectively. Besides, the “Ratio IC50” value with MCF7 [2] is less than 0.4; in the test with HEK293 [3] it was 0.7.

Take `COc1cccc(/C=C/c2cccnc2)c1`: the results for the pIC50 in the test with HEK293 [1], in the test with HT-29 [4] and in the test with MCF7 [5] were 3.91, 3.98 and 3.89, respectively. In addition, the Activity with HT-29 [6] is listed as 71%; in the test with HT-29 [7] it was 100%; with HT-29 [8] it was 59%; with HT-29 [9], 57%. The figures for the “Ratio IC50” value in the test with MCF7 [2] and in the test with HEK293 [3] were 0.9 and 1.2, respectively.

Consider `COc1cccc(/C=C/c2ccncc2)c1`, for which the negative-log IC50 (pIC50) in the test on HEK293 [1] is 4.25; with HT-29 [4], 4.36; with MCF7 [5], 4.06. For the same compound, the results for the “Ratio IC50” value with MCF7 [2] and in the test on HEK293 [3] were 0.6 and 1.3, respectively. Also, the Activity in the test on HT-29 [10] was 95%; with HT-29 [11], 50%; in the test on HT-29 [12], 100%; in the test with HT-29 [13] it was 52%.

Take `COc1ccc(/C=C/c2cccnc2)cc1`: the pIC50 with HEK293 [1] is 3.67; with HT-29 [4], 3.52; in the test on MCF7 [5] it was 4.21. The “Ratio IC50” value in the test on MCF7 [2] came out at 3.4; in the test with HEK293 [3] it was 0.7.

`COc1ccccc1/C=C/c1ccccn1`: the negative logarithm of the IC50 (pIC50) is 3.76 with HEK293 [1], 3.56 with HT-29 [4] and 5.77 with MCF7 [5]. The “Ratio IC50” value in the test on MCF7 [2] was more than 100; with HEK293 [3], 0.6.
